Values after ≈ are worked out from the molar mass of the structure shown.
These molecules were tested on Houseflies (MD) (Musca domestica) (assay: not given). Conditions: Tables 10, 13, 14; NA = lack of detectable activity.
Format: in vivo
Procedure: Female flies were treated on the thorax with a one microlitre drop of test compound dissolved in acetone. Two replicates of 15 flies were used at each dose rate and 6 dose rates were used per compound under test. After treatment, the flies were maintained at a temperature of 20° ± 1°C and kill was assessed 24 and 48 hours after treatment. LD50 values were calculated in micrograms of test compound per fly (see Sawicki et al., Bulletin of the World Health Organisation, 35, 893 (1966) and Sawicki et al., Entomologia and Exp. Appli 10, 253, (1967).
For `CC1(CC2=C(O)C(=O)c3ccccc3C2=O)CCCCC1` [Example 32, 2-hydroxy-3-((1'methylcyclohexyl)-methyl)-naphthalene-1,4-dione], the “MD LD50 (µg/insect)” value was 3.6 µg/insect. In the case of `CC(=O)OC1=C(CC2(C)CCCCC2)C(=O)c2ccccc2C1=O` [Example 33, 2-acetoxy-3-((1'-methylcyclohexyl)-methyl)-naphthalene-1,4-dione], the “MD LD50 (µg/insect)” value is reported as 5.7 µg/insect. `CC(C)(C)CCCCC1=C(O)C(=O)c2ccccc2C1=O` [Example 38, 2-(5,5-dimethylhexyl)-3-hydroxy-naphthalene-1,4-dione] was tested, and the “MD LD50 (µg/insect)” value was 5.3 µg/insect. `CC(C)(C)CCCCCC1=C(O)C(=O)c2ccccc2C1=O` [Example 39] was tested, and the “MD LD50 (µg/insect)” value was “c5 µg/insect”. In the case of `CC(C)(C)CCCCCCC1=C(O)C(=O)c2ccccc2C1=O` [Example 40], the “MD LD50 (µg/insect)” value is reported as “c5 µg/insect”. `CC(C)(C)C=CCCCCC1=C(O)C(=O)c2ccccc2C1=O` [Example 44, 2-(7,7-dimethyloct-5-enyl)-3-hydroxy-naphthalene-1,4-dione] was tested, and the “MD LD50 (µg/insect)” value was “c10 µg/insect”. With `CC(=O)OC1=C(C(C)(C)C)C(=O)c2ccccc2C1=O` [Example 46] the “MD LD50 (µg/insect)” value was 2.3 µg/insect. In the case of `CC(=O)OC1=C(CCC(C)(C)C)C(=O)c2ccccc2C1=O` [Example 47, 2-ethanoyloxy-3-(3,3-dimethylbutyl)-naphthalene-1,4-dione], the “MD LD50 (µg/insect)” value is reported as 2.2 µg/insect. In the case of `CC(=O)OC1=C(CCCCCCC=CCC(C)(C)C)C(=O)c2ccccc2C1=O` [Example 49, 2-ethanoyoxy-3-(10,10-dimethylundecan-7-enyl)-naphthalene-1,4-dione], the “MD LD50 (µg/insect)” value is reported as “c18 µg/insect”.

The molecules below were run on Mustard beetles (PC) (Phaedon cochleariae Fab) (assay: not given). Conditions: Tables 10, 13, 14; NA = lack of detectable activity.
Format: in vivo
Procedure: A one microlitre drop of an acetone solution of the test compound was applied ventrally to adult mustard beetles using a micro drop applicator. The treated insects were maintained for 48 hours after which time kill was assessed. Two replicates each of 20 to 25 mustard beetles were used at each dose level and 5 dose levels were treated comparably. LD50 values were calculated as for houseflies.
`CC1(CC2=C(O)C(=O)c3ccccc3C2=O)CCCCC1` [Example 32, 2-hydroxy-3-((1'methylcyclohexyl)-methyl)-naphthalene-1,4-dione] was tested, and the “PC LD50 (µg/insect)” value was <2 µg/insect. For `CC(=O)OC1=C(CC2(C)CCCCC2)C(=O)c2ccccc2C1=O` [Example 33, 2-acetoxy-3-((1'-methylcyclohexyl)-methyl)-naphthalene-1,4-dione], the “PC LD50 (µg/insect)” value was 2.8 µg/insect. In the case of `CC(C)(C)CCCCC1=C(O)C(=O)c2ccccc2C1=O` [Example 38, 2-(5,5-dimethylhexyl)-3-hydroxy-naphthalene-1,4-dione], the “PC LD50 (µg/insect)” value is reported as “c8 µg/insect”. With `CC(=O)OC1=C(C(C)(C)C)C(=O)c2ccccc2C1=O` [Example 46] the “PC LD50 (µg/insect)” value was “c15 µg/insect”. `CC(=O)OC1=C(CCC(C)(C)C)C(=O)c2ccccc2C1=O` [Example 47, 2-ethanoyloxy-3-(3,3-dimethylbutyl)-naphthalene-1,4-dione] was tested, and the “PC LD50 (µg/insect)” value was “c1 µg/insect”. For `CC(=O)OC1=C(CCCCCCC=CCC(C)(C)C)C(=O)c2ccccc2C1=O` [Example 49, 2-ethanoyoxy-3-(10,10-dimethylundecan-7-enyl)-naphthalene-1,4-dione], the “PC LD50 (µg/insect)” value was “c10 µg/insect”.

These molecules were tested on Myzus persicae, susceptible strain (US1L) (assay: Aphid dip test, susceptible strain). Conditions: read-out: MP % kill 100 ppm.
Format: in vivo
Procedure: Activity against resistant (R) and susceptible (S) strains of aphid (Myzus persicae) was assessed using the following method.
Entrapment rings of fluon were painted halfway up the inside of 4 cm lengths of glass tubing (1.5 cm diameter), and squares of insect-proof gauze were attached to one end of each tube by elastic bands. Fifteen apterous adults were then gently transferred into the tubes using a sable-hair brush, and the tube sealed with a second gauze square.
Tubes containing aphids were dipped into insecticide solutions for 10 seconds, dried on blotting paper, and then inverted and tapped to cause treated aphids to fall to the unimmersed end of each tube. Handling mortality (usually zero or very slight) was scored after 1 hour, when aphids were transferred onto chinese cabbage leaf-discs (35 mm diameter) on an agar bed (25 mm in depth) in disposible plastic containers (30 mm high) and confined by applying a ring of fluon to the exposed lip of the container. Containers were store upright, without lids, in a constant environment facility maintained at 25°C under continuous room lighting. Mortality was assessed at 24, 48 and 72 hours. Two replicates of 15 aphids each were used at each dose rate and 5 or 6 dose rates were used per compound under test.
The test was carried out using a susceptible strain of aphids (US1L) collected in the field in East Anglia, UK and an extremely resistant strain of aphids (794Jz) (R3 esterase, sensitive AChE) collected from glasshouses in the UK.
The values given are % mortality corrected for control data. The control comprised the test solution without active ingredient.
Molecule `CC1(CC2=C(O)C(=O)c3ccccc3C2=O)CCCCC1` [Example 32, 2-hydroxy-3-((1'methylcyclohexyl)-methyl)-naphthalene-1,4-dione] has a mortality at 100 ppm of 50%. `CC(=O)OC1=C(CC2(C)CCCCC2)C(=O)c2ccccc2C1=O` [Example 33, 2-acetoxy-3-((1'-methylcyclohexyl)-methyl)-naphthalene-1,4-dione] gave a mortality at 100 ppm of 30%. Molecule `CC(C)(C)CCCCC1=C(O)C(=O)c2ccccc2C1=O` [Example 38, 2-(5,5-dimethylhexyl)-3-hydroxy-naphthalene-1,4-dione] has a mortality at 100 ppm of ~100%. `CC(C)(C)CCCCCC1=C(O)C(=O)c2ccccc2C1=O` [Example 39] gave a mortality at 100 ppm of ~100%. `CC(C)(C)CCCCCCC1=C(O)C(=O)c2ccccc2C1=O` [Example 40] gave a mortality at 100 ppm of ~100%. `CC(C)(C)C=CCCCCC1=C(O)C(=O)c2ccccc2C1=O` [Example 44, 2-(7,7-dimethyloct-5-enyl)-3-hydroxy-naphthalene-1,4-dione] showed a mortality at 100 ppm of ~100%. Work on `CC(=O)OC1=C(C(C)(C)C)C(=O)c2ccccc2C1=O` [Example 46] yielded a mortality at 100 ppm of ~60%. Work on `CC(=O)OC1=C(CCC(C)(C)C)C(=O)c2ccccc2C1=O` [Example 47, 2-ethanoyloxy-3-(3,3-dimethylbutyl)-naphthalene-1,4-dione] yielded a mortality at 100 ppm of ~100%. Work on `CC(=O)OC1=C(CCCCCCC=CCC(C)(C)C)C(=O)c2ccccc2C1=O` [Example 49, 2-ethanoyoxy-3-(10,10-dimethylundecan-7-enyl)-naphthalene-1,4-dione] yielded a mortality at 100 ppm of ~15%.

Each molecule was assayed on Mites (TU) (Tetranychus urticae), susceptible strain (GSS) (assay: Mite immersion test, susceptible strain GSS). Conditions: 72 h, Tables 10, 13, 14, susceptible strain, NA = lack of detectable activity, read-out: TU LC50 (ppm/insect).
Format: in vivo
Procedure: 25 adult female mites were immersed in 35 µl of a solution of the test compound in a 1:4 acetone-water mixture for 30 seconds. The treated insects were maintained at 21° ± 2°C and kill was assessed 72 hours after treatment. […] Three replicates of 25 mites each were used at each dose rate and 5 or 6 dose rates were used per compound under test. LC50 values were calculated in ppm of the solution of the test compound per insect. The test was carried out using a susceptible strain of mites (GSS) supplied by Schering, AG, Berlin.
`CC1(CC2=C(O)C(=O)c3ccccc3C2=O)CCCCC1` [Example 32, 2-hydroxy-3-((1'methylcyclohexyl)-methyl)-naphthalene-1,4-dione] gave an LC50 of 2.9 µg/mL (≈ 10.2 µM). Work on `CC(=O)OC1=C(CC2(C)CCCCC2)C(=O)c2ccccc2C1=O` [Example 33, 2-acetoxy-3-((1'-methylcyclohexyl)-methyl)-naphthalene-1,4-dione] yielded an LC50 of 2.3 µg/mL (≈ 7.05 µM). `CC(C)(C)CCCCC1=C(O)C(=O)c2ccccc2C1=O` [Example 38, 2-(5,5-dimethylhexyl)-3-hydroxy-naphthalene-1,4-dione] showed an LC50 of 3.5 µg/mL (≈ 12.2 µM). Molecule `CC(C)(C)CCCCCC1=C(O)C(=O)c2ccccc2C1=O` [Example 39] has an LC50 of 9.6 µg/mL (≈ 32 µM). Work on `CC(C)(C)CCCCCCC1=C(O)C(=O)c2ccccc2C1=O` [Example 40] yielded an LC50 of 5 µg/mL (≈ 15.9 µM). In the case of `CC(C)(C)C=CCCCCC1=C(O)C(=O)c2ccccc2C1=O` [Example 44, 2-(7,7-dimethyloct-5-enyl)-3-hydroxy-naphthalene-1,4-dione], the LC50 is reported as 4.3 µg/mL (≈ 13.8 µM). `CC(=O)OC1=C(C(C)(C)C)C(=O)c2ccccc2C1=O` [Example 46] gave an LC50 of ~500 µg/mL (≈ 1840 µM). Work on `CC(=O)OC1=C(CCC(C)(C)C)C(=O)c2ccccc2C1=O` [Example 47, 2-ethanoyloxy-3-(3,3-dimethylbutyl)-naphthalene-1,4-dione] yielded an LC50 of ~20 µg/mL (≈ 66.6 µM). Work on `CC(=O)OC1=C(CCCCCCC=CCC(C)(C)C)C(=O)c2ccccc2C1=O` [Example 49, 2-ethanoyoxy-3-(10,10-dimethylundecan-7-enyl)-naphthalene-1,4-dione] yielded an LC50 of 2.3 µg/mL (≈ 5.8 µM).

The molecules below were run on Whitefly (BT) (Bemisia tabaci), susceptible strain (SUD-S) (assay: Whitefly residual film vial test, susceptible strain SUD-S). Conditions: 48 h, Tables 10, 13, 14, susceptible strain, NA = lack of detectable activity, read-out: BT LC50 (ppm/insect).
Format: in vivo
Procedure: Acetone solutions (0.100 ml) of the test compounds were placed in 10 ml glass vials and evaporated with rotation to deposit a film of the compound. Thirty adult whiteflies were placed inside the vial, then after 60 minutes, the treated insects were transferred onto untreated cotton leaf discs which were kept moist on a bed of agar gel. The temperature was maintained at 25°C and mortality assessed after 48 hours. Three replicates were used at each of 5 to 7 dose levels per compound.
For `CC1(CC2=C(O)C(=O)c3ccccc3C2=O)CCCCC1` [Example 32, 2-hydroxy-3-((1'methylcyclohexyl)-methyl)-naphthalene-1,4-dione], the LC50 was 3.6 µg/mL (≈ 12.7 µM). With `CC(=O)OC1=C(CC2(C)CCCCC2)C(=O)c2ccccc2C1=O` [Example 33, 2-acetoxy-3-((1'-methylcyclohexyl)-methyl)-naphthalene-1,4-dione] the LC50 was 5.1 µg/mL (≈ 15.6 µM). `CC(C)(C)CCCCC1=C(O)C(=O)c2ccccc2C1=O` [Example 38, 2-(5,5-dimethylhexyl)-3-hydroxy-naphthalene-1,4-dione] was tested, and the LC50 was ~60 µg/mL (≈ 210 µM). `CC(C)(C)CCCCCC1=C(O)C(=O)c2ccccc2C1=O` [Example 39] was tested, and the LC50 was 21 µg/mL (≈ 69.9 µM). In the case of `CC(C)(C)CCCCCCC1=C(O)C(=O)c2ccccc2C1=O` [Example 40], the LC50 is reported as 13 µg/mL (≈ 41.3 µM). For `CC(C)(C)C=CCCCCC1=C(O)C(=O)c2ccccc2C1=O` [Example 44, 2-(7,7-dimethyloct-5-enyl)-3-hydroxy-naphthalene-1,4-dione], the LC50 was ~100 µg/mL (≈ 320 µM). `CC(=O)OC1=C(CCC(C)(C)C)C(=O)c2ccccc2C1=O` [Example 47, 2-ethanoyloxy-3-(3,3-dimethylbutyl)-naphthalene-1,4-dione] was tested, and the LC50 was 2.1 µg/mL (≈ 6.99 µM).
